Laboratory results published in patent US20240058337A1, “Managing Side Effects in T Cell Therapy” (Innovative Cellular Therapeutics Holdings, Ltd., priority 2022, published 2024).

Legend:
Format in all cases: in vivo, human
[1] = tested on: colorectal cancer (CRC) patients; assay: Clinical trial: response and disease control to CAR T therapy with or without dasatinib; settings: patients who got dasatinib
Protocol: (§1) This system was implemented in a clinical trial involving 35 colorectal cancer (CRC) patients, which were treated with mixed population of cells including GCC CAR T cells. Diarrhea, a common side effect, typically presented as early as day 7 (median=9, range 7-15) at a grade two severity or higher. The primary treatment for this was immediate administration of infliximab and, in some cases, dasatinib.
(§2) For the 1×10^6 CAR T/kg of body weight dose, half of the patients managed their diarrhea through supportive care and antidiarrheal medication. Around 85% experienced grade 2 or higher diarrhea, 67% of whom responded well to a single dose of infliximab. At a higher dose of 2×10^6 CAR T/kg bodyweight, only 13% of patients could control diarrhea with supportive care or antidiarrheal drugs, and all patients experienced a grade 2 or higher diarrhea, but only 43% responded to a single infliximab dose. […] In such cases, dasatinib was administered at 100 mg/day for over ten consecutive days until the patient's side effects reduced to grade 1 or less, and the patient was ready for discharge.

[2] = tested on: Cytokine Release Syndrome (CRS); assay: Cytokine Release Syndrome (CRS) management after CAR T therapy; settings: grade 2 fever not resolved within 6 hours with conventional antipyretic methods
Protocol: This fever typically occurs earliest on day 3 (median is day 5, range is day 3-12). Tocilizumab administration results in remission in 90% of cases. However, if 24 hours after administering tocilizumab, the patient still presents with a grade 2 or higher fever or a refractory fever, treatment with corticosteroids should be initiated following ASCO guidelines. The remaining 10% of patients typically responds well to corticosteroids. If there is no improvement within 24 hours after this step, the administration of dasatinib at 100 mg once daily for 2-3 days can be administered.

[3] = tested on: colorectal cancer (CRC) patients; assay: Clinical trial of mixed population of cells including GCC CAR T cells: diarrhea side effect and its management
Protocol: as §1, §2

Cc1nc(Nc2ncc(C(=O)Nc3c(C)cccc3Cl)s2)cc(N2CCN(CCO)CC2)n1 [dasatinib]
Disease Control Rate ([1]; 1 million cells/kg): 33.3% | Response Rate to CAR T Therapy ([1]; 1 million cells/kg): 0% | Disease Control Rate ([1]; 2 million+ cells/kg): 75% | Response Rate to CAR T Therapy ([1]; 2 million+ cells/kg): 50%

Tocilizumab
remission of grade 2 fever (CRS) after tocilizumab administration, cases [2]: 90%

infliximab
patients with grade 2 or higher diarrhea who responded well to a single dose of infliximab ([3]; 1×10^6 CAR T/kg of body weight): 67% | patients with grade 2 or higher diarrhea who responded to a single infliximab dose ([3]; 2×10^6 CAR T/kg bodyweight): 43% | patients who benefitted from a single dose of infliximab ([3]; 3×10^6 CAR T/kg body weight): fewer patients benefitted
